Paper PMC9305131, “Expanding the Repertoire of Low‐Molecular‐Weight Pentafluorosulfanyl‐Substituted Scaffolds” (Chemmedchem, 2022)
“And” between values parts separate entries of the source, which are not always exact repeats. Identical values can stand only once. “Also recorded” adds a separate entry of the source. Like-named read-outs stand apart in the source and are kept apart here.

Assays:
Pseudotyped SARS CoV2 = assay type: cell-based; conditions: HEK293T/17 with ACE2 and TMPRSS2, 48 hours, toxic concentrations excluded, normalised data
HEK293T/17 cells = conditions: for Cytostatic effect (in words): HEK293T/17 cells; for Cytostatic effect at concentrations above: 200–0.4 μM range
human HDHODH = human HDHODH (Homo sapiens, UniProt Q02127); assay: HDHODH inhibition, in vitro fluorescence‐based assays run by Reaction Biology; assay type: biochemical
human HDHODH, sequence (Q02127 whole entry): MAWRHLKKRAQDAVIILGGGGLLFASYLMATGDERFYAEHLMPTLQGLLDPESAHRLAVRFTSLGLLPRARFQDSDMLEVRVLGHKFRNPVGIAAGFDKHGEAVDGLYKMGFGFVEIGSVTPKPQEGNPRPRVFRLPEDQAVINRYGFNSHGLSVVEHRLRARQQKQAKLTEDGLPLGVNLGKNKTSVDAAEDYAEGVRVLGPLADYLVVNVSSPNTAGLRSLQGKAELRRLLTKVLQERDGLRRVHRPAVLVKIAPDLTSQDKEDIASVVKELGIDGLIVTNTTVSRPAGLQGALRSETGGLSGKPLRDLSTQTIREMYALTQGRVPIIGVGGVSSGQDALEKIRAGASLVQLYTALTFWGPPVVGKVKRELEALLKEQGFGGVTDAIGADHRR

SARS‐CoV‐2 M^pro = biological target: T1, SARS‐CoV‐2 M^pro (Severe acute respiratory syndrome coronavirus 2, UniProt P0DTD1); assay: M^Pro inhibition (fluorescence‐based turnover assay / dose response); assay type: biochemical; conditions: enzyme inhibition; 17: fluorescence‐based turnover assay
T1 construct: M^pro releases the functional polypeptides from the polyproteins by extensive proteolytic processing

VEGFR2 = VEGFR2 (Homo sapiens, UniProt P35968); assay: Biochemical kinase assay, VEGFR2; conditions: for inhibition at 10 µM: read-out: Percent inhibition at 10 μM; for IC50: n=1, 10‐dose IC50 mode with twofold serial dilutions, starting at 10 μM
VEGFR2, sequence (P35968 20-1356): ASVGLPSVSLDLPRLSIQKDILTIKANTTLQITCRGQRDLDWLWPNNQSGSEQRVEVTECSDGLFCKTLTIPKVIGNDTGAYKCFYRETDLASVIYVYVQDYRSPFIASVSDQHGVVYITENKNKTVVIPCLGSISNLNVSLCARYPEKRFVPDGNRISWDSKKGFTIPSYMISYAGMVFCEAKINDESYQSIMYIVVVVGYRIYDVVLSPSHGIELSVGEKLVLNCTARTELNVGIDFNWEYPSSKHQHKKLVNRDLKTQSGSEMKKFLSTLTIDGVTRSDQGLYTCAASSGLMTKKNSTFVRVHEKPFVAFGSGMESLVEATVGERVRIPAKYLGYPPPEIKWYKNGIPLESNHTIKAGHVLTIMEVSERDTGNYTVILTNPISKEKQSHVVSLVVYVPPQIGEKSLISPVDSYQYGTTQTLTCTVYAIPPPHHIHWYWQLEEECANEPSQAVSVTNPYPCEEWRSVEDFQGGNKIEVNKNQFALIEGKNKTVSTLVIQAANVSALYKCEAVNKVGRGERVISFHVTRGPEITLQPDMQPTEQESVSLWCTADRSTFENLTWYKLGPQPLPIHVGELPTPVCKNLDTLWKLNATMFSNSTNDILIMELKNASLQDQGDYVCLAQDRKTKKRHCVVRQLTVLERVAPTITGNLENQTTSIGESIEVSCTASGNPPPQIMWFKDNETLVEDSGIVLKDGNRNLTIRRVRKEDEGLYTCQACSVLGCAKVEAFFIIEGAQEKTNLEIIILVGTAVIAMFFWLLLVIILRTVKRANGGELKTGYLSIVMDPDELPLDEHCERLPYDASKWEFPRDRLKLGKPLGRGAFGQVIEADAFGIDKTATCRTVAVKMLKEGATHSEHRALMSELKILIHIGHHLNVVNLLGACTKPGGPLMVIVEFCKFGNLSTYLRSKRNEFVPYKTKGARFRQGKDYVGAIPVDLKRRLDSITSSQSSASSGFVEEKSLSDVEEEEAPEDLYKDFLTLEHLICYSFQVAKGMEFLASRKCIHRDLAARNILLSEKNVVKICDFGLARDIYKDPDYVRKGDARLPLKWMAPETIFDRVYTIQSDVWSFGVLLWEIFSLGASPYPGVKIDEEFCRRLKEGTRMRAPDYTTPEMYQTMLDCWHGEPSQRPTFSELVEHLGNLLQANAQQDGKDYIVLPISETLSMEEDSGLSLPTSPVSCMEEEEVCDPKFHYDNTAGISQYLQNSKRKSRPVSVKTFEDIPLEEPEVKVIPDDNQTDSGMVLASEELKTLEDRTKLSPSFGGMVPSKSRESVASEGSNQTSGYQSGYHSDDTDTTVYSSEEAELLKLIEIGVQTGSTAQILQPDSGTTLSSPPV

For N#C/C(C(=O)Nc1ccc(F)cc1)=C(/O)c1ccc(Cl)cc1 [compound 17], the “Effect on SARS‐CoV‐2 infection of target cells (in words)” value (shortened to “Effect on SARS‐CoV‐2 infection”) (Pseudotyped SARS CoV2) was “enhancing effect”, the “Cells healthy up to” value (HEK293T/17 cells; HEK293T/17, MTS, 48 hours) was “up to 50 μM” and the “Cytostatic effect (in words)” value (HEK293T/17 cells) was “less cytostatic”. For the same molecule, the “Activity versus HDHODH (in words)” value (human HDHODH) was “inactive; also recorded: no affinity”, the inhibition at 10 µM (human HDHODH; HDHODH, 10 μM, read-out: Percent inhibition at 10 μM) was < 10% and the IC50 (SARS‐CoV‐2 M^pro) was 230 nM.

CC(C)=C1C(=O)Nc2ccc(S(F)(F)(F)(F)F)cc21 [8 b, 5‐(Pentafluoro‐λ^6‐sulfanyl)‐3‐(propan‐2‐ylidene)‐2,3‐dihydro‐1H‐indol‐2‐one] gave a melting point of 191 to 194 °C.

In the case of C/C(O)=C(\C#N)C(=O)Nc1ccc(C(F)(F)F)cc1 [Teriflunomide, reference compound], the “Effect on SARS‐CoV‐2 infection” value (Pseudotyped SARS CoV2; listed as teriflunomide) is reported as “no effect”, the “Cytostatic effect at concentrations above” value (HEK293T/17 cells; HEK293T/17, MTS, 48 hours) is reported as “above 0.78 μM” and the “Cytostatic effect (in words)” value (HEK293T/17 cells) is reported as “cytostatic”. The “Cytostatic effect (in words)” value (HEK293T/17 cells; listed as teriflunomide) was “strong cytostatic”.

With C/C(O)=C(\C#N)C(=O)Nc1ccc(S(F)(F)(F)(F)F)cc1 [compound 16, (2Z)‐2‐Cyano‐3‐hydroxy‐N‐[4‐(pentafluoro‐λ^6‐sulfanyl)phenyl] but‐2‐enamide] the “Effect on SARS‐CoV‐2 infection” value (Pseudotyped SARS CoV2; listed as SF5-teriflunomide) was “no effect”, the “Cytostatic effect at concentrations above” value (HEK293T/17 cells; HEK293T/17, MTS, 48 hours) was > 3.1 µM and the “Cytostatic effect (in words)” value (HEK293T/17 cells) was “cytostatic”. For the same molecule, the “Cytostatic effect (in words)” value (HEK293T/17 cells; listed as SF5-teriflunomide) was “strong cytostatic”, the IC50 (human HDHODH; IC50, HDHODH inhibition) was 27 nM and the IC50 (human HDHODH; IC50, individual determinations behind the mean (n=2), HDHODH inhibition) was 29 nM and 25 nM. The “Activity/affinity towards HDHODH compared with Teriflunomide” value (human HDHODH; relative to Teriflunomide, listed as SF5‐Teriflunomide) was “approximately twice as active; also recorded: approximately two‐fold greater affinity” and the melting point was 167 to 170 °C.

With O=C(c1cccc(S(F)(F)(F)(F)F)c1)N1CCCCC1 [3 a, [3‐(Pentafluoro‐λ^6‐sulfanyl)phenyl](piperidin‐1‐yl)methanone] the melting point was 88 to 90 °C.

For Cc1cc(C)c(/C=C2\C(=O)Nc3ccc(S(F)(F)(F)(F)F)cc32)[nH]1 [8 a, (3Z)‐3‐[(3,5‐Dimethyl‐1H‐pyrrol‐2‐yl)methylidene]‐5‐(pentafluoro‐λ^6‐sulfanyl)‐2,3‐dihydro‐1H‐indol‐2‐ one], the inhibition at 10 µM (VEGFR2) was 27%, the IC50 (VEGFR2) was “did not manifest sufficient inhibition to generate IC50 values” and the melting point was 203 to 205 °C.

With Cc1cc(C)c(/C=C2\C(=O)Nc3cc(S(F)(F)(F)(F)F)ccc32)[nH]1 [9 a, (3Z)‐3‐[(3,5‐Dimethyl‐1H‐pyrrol‐2‐yl)methylidene]‐6‐(pentafluoro‐λ^6‐sulfanyl)‐2,3‐dihydro‐1H‐indol‐2‐one] the inhibition at 10 µM (VEGFR2) was 23%, the IC50 (VEGFR2) was “did not manifest sufficient inhibition to generate IC50 values” and the melting point was 199 to 201 °C.

For CS(=O)(=O)N1CCN(C(=O)c2cccc(S(F)(F)(F)(F)F)c2)CC1 [3 f, (3‐Pentafluoro‐λ^6‐sulfanyl phenyl)(4‐(methylsulfonyl)piperazin‐1‐yl)methanone], the melting point was 159 to 160 °C.

Work on O=C(c1cccc(S(F)(F)(F)(F)F)c1)N1CCOCC1 [3 c, [3‐(Pentafluoro‐λ^6‐sulfanyl)phenyl](morpholino)methanone] yielded a melting point of 63 to 64 °C.

Molecule CN1C(=O)C2(CCOCC2)c2cc(S(F)(F)(F)(F)F)ccc21 [11 b, 1‐Methyl‐5‐(pentafluoro‐λ^6‐sulfanyl)‐1,2‐dihydrospiro[indole‐ 3,4′‐oxan]‐2‐one] has a melting point of 158 °C.

In the case of Cc1oncc1C(=O)Nc1ccc(S(F)(F)(F)(F)F)cc1 [compound 15, 5‐Methyl‐N‐[4‐(pentafluoro‐λ^6‐sulfanyl)phenyl]‐1,2‐oxazole‐ 4‐carboxamide], the “Effect on SARS‐CoV‐2 infection” value (Pseudotyped SARS CoV2) is reported as “satisfactory inhibition of SARS‐CoV‐2 infection”, the “Cytostatic effect (in words)” value (HEK293T/17 cells) is reported as “cytostatic” and the IC50 (human HDHODH; IC50, HDHODH inhibition) is reported as 365 nM. The melting point was 167 to 168 °C.

In the case of O=C1Nc2ccc(S(F)(F)(F)(F)F)cc2C12CCOCC2 [11 a, 5‐(Pentafluoro‐λ^6‐sulfanyl)‐1,2‐dihydrospiro[indole‐3,4′‐ oxan]‐2‐one], the melting point is reported as 247 to 249 °C.
